Patent publication US8343981B2, “Heterocyclyl-substituted dihydroquinazolines and their use as antiviral agents” (AiCuris GmbH & Co. KG, priority 2003, dated 2013)

Columns and labels:
HCMV = assay: Anti-HCMV cytopathogenicity test; format: cell-based, human cytomegalovirus; settings: for SI HCMV (selectivity index): CC50 (NHDF)/EC50 (HCMV); for EC50: Human betaherpesvirus 5, 144 h, HCMV-infected NHDF cells, M.O.I. 0.001-0.002, 6 days, 50% inhibition of cytopathic effect
Description: (§1) Anti-HCMV (Anti-Human Cytomegalovirus) Cytopathogenicity Tests The test compounds are employed as 50 millimolar (mM) solutions in dimethyl sulphoxide (DMSO). Ganciclovir®, Foscarnet® and Cidofovir® are used as reference compounds. After addition of in each case 2 μl of the 50, 5, 0.5 and 0.05 mM DMSO stock solutions to 98 μl portions of cell culture medium in row […] for duplicate determinations, 1:2 dilutions are carried out with 50 μl portions of medium up to row 11 of the 96-well plate. The wells in rows 1 and 12 each contain 50 μl of medium. Then 150 μl portions of a suspension of 1×10^4 cells (human prepuce fibroblasts [NHDF]) are pipetted into each of the wells (row 1=cell control) and, in rows 2-12, a mixture of HCMV-infected and uninfected NHDF cells (M.O.I.=0.001-0.002), i.e. 1-2 infected cells per 1000 uninfected cells. Row 12 (without substance) serves as virus control. The final test concentrations are 250-0.0005 μM. The plates are incubated at 37° C./5% CO2 for 6 days, i.e. until all the cells are infected in the virus controls (100% cytopathogenic effect [CPE]). The wells are then fixed and stained by adding a mixture of formalin and Giemsa's dye (30 minutes), washed with double-distilled water and dried in a drying oven at 50° C. The plates are then assessed visually using an overhead microscope (Plaque Multiplier from Technomara). The following data can be acquired from the test plates: • CC50 (NHDF)=substance concentration in μM at which no visible cytostatic effects on the cells are evident by comparison with the untreated cell control; • EC50 (HCMV)=substance concentration in μM which inhibits the CPE (cytopathic effect) by 50% compared with the untreated virus control; • SI (selectivity index)=CC50 (NHDF)/EC50 (HCMV).

[1] = Cytostatic effect on NHDF cells in the anti-HCMV cytopathogenicity test; format: cell-based; settings: NHDF cells (human prepuce fibroblasts), 6 days incubation, visual assessment, concentration at which no visible cytostatic effects are evident
Description: as §1

Structure (SMILES) | SI HCMV (selectivity index) (HCMV) | EC50 (HCMV) | CC50 at 6 days [1]
COc1ccc(C(F)(F)F)cc1N1C(N2CCn3c(cc4c(C)cccc43)C2)=Nc2c(F)cccc2C1CC(=O)O (single isomer, unassigned) [Example 2] | 233 | 0.09 µM | 21 µM
COc1ccc(C(F)(F)F)cc1N1C(N2CCn3c(cc4c(F)cccc43)C2)=Nc2c(F)cccc2C1CC(=O)O (single isomer, unassigned) [Example 4] | 117 | 0.12 µM | 14 µM
COc1ccc(C(F)(F)F)cc1N1C(N2CCN3c4ccc(F)cc4CC3C2)=Nc2c(F)cccc2C1CC(=O)O (single isomer, unassigned) [Example 16, {8-Fluoro-2-(8-fluoro-3,4,10,10a-tetrahydropyrazino[1,2-a]indol-2(1H)-yl)-3-[2-methoxy-5-(trifluoromethyl)phenyl]-3,4-dihydroquinazolin-4-yl}acetic acid] | 1050 | 0.02 µM | 21 µM
COc1ccc(C(F)(F)F)cc1N1C(N2CCN3c4cccc(C)c4CC3C2)=Nc2c(F)cccc2C1CC(=O)O (stereo not drawn) [Example 9, [8-Fluoro-3-[2-methoxy-5-(trifluoromethyl)phenyl]-2-(9-methyl-3,4,10,10a-tetra-hydropyrazino[1,2-a]indol-2(1H)-yl)-3,4-dihydroquinazolin-4-yl]acetic acid] | 600 | 0.04 µM | 24 µM
